Test [1] has as its target T1, Recombinant ROCK1 (amino acids 1-477) (Homo sapiens, UniProt Q13464).
T1 construct: Recombinant ROCK1 (amino acids 1-477)
The test is described as follows: ROCK inhibition assay, LANCE Ultra TR-FRET kinase assay. It is filed as biochemical. The settings on record: at Km of ATP (table title); method: 1 mM ATP, 50 nM ULight-CREBtide substrate, 1 hour, room temperature.

Test [2] concerns the target T2, Recombinant ROCK2 (amino acids 5-554) (Homo sapiens, UniProt O75116).
T2 construct: ROCK2 (amino acids 5-554)
The test is described as above. In kind it is biochemical. The settings on record: at Km of ATP (table title); method: 1 mM ATP, 50 nM ULight-CREBtide substrate, 1 hour, room temperature.

Some results are limits rather than exact numbers.

T1 sequence (Q13464 1-477): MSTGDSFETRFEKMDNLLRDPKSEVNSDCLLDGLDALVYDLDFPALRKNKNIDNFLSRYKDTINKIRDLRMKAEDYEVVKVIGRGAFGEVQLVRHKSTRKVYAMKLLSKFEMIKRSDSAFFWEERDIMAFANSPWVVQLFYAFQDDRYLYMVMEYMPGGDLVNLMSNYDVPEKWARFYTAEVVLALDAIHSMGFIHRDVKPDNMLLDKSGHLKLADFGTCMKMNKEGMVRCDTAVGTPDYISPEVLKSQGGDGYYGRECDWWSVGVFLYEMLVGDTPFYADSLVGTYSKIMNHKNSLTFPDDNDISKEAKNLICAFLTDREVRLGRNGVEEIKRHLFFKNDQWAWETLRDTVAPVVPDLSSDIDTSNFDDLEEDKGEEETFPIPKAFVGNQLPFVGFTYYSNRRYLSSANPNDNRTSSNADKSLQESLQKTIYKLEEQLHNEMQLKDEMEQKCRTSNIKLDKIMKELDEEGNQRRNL
T2 sequence (O75116 5-554): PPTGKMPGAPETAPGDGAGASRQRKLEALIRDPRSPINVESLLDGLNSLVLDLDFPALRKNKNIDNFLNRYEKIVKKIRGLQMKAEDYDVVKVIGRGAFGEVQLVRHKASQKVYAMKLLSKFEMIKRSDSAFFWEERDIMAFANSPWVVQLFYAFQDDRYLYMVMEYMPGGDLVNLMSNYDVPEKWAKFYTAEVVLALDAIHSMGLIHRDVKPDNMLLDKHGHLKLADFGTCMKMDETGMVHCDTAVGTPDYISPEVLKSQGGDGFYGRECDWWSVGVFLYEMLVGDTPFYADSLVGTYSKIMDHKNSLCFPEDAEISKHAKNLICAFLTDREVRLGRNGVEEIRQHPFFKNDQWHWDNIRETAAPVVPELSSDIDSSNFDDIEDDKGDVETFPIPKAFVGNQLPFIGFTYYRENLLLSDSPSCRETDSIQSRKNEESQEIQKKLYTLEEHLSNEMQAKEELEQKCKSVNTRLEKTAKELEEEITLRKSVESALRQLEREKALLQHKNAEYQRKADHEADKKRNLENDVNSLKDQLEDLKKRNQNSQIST

Take `CC(C)c1n[nH]cc1-c1ccc2c(C(=O)C3COc4ccc(F)cc4C3)nn(CCO)c2c1` (stereo not drawn) [Compound 2-28]: the IC50 in test [1] and in test [2] was over 501 nM each time.
As for `COc1n[nH]cc1-c1ccc2c(C(=O)C3COc4ccc(Cl)cc4C3)nn(CC#N)c2c1` (stereo not drawn) [Compound 2-29], the IC50 in test [1] is over 501 nM; in test [2], 51 to 500 nM.
For the molecule `COc1n[nH]cc1-c1ccc2c(C(=O)C3Cc4ccccc4O3)nn(CCO)c2c1` (stereo not drawn) [Compound 2-30], the IC50 in test [1] and in test [2] was 51 to 500 nM in each case.
For the molecule `COc1n[nH]cc1-c1ccc2c(C(=O)C3(C)COc4ccccc4O3)nn(CCO)c2c1` (stereo not drawn) [Compound 2-31], the IC50 in test [1] and in test [2] was 51 to 500 nM in each case.
`COc1n[nH]cc1-c1ccc2c(C(=O)c3coc4ccccc34)nn(CCO)c2c1` [Compound 2-32]: the results for the IC50 in test [1] and in test [2] were over 501 nM and 51 to 500 nM, respectively.
For the molecule `COc1n[nH]cc1-c1ccc2c(C(=O)C3COc4ccc(Cl)cc4C3)nn(CC(C)O)c2c1` (stereo not drawn) [Compound 2-33], the IC50 in test [1] was in the range of 51 to 500 nM; in test [2], 11 to 50 nM.
With `COc1n[nH]cc1-c1ccc2c(C(=O)C3COc4ccc(Cl)cc4C3)nn(C[C@@H](C)O)c2c1` (stereo partly drawn) [Compound 2-34], the values for the 50% inhibitory concentration (IC50) in test [1] and in test [2] were 51 to 500 nM and 11 to 50 nM, respectively.
For `COc1n[nH]cc1-c1ccc2c(C(=O)C3COc4ccc(Cl)cc4C3)nn(C[C@H](C)O)c2c1` (stereo partly drawn) [Compound 2-35], the IC50 in test [1] was in the range of 51 to 500 nM; in test [2], 11 to 50 nM.
For `O=C(c1nn(CCO)c2cc(-c3cn[nH]c3)ccc12)C1COc2ccc(F)cc2C1` (stereo not drawn) [Compound 3-1, (6-fluorochroman-3-yl)(1-(2-hydroxyethyl)-6-(1H-pyrazol-4-yl)-1H-indazol-3-yl)methanone], the values for the IC50 in test [1] and in test [2] were 11 to 50 nM and under 10 nM, respectively.
Take `O=C(c1nn(CCO)c2cc(-c3cn[nH]c3)ccc12)C1COc2ccccc2C1` (stereo not drawn) [Compound 3-2]: the IC50 was 11 to 50 nM in test [1] and under 10 nM in test [2].
`O=C(c1nn(CCO)c2cc(-c3cn[nH]c3)ccc12)C1COc2ccc(F)cc2O1` (stereo not drawn) [Compound 3-3]: the IC50 is 11 to 50 nM in test [1] and under 10 nM in test [2].
Turning to `O=C(c1nn(CCO)c2cc(-c3cn[nH]c3)ccc12)C1COc2ccc(Cl)cc2O1` (stereo not drawn) [Compound 3-4], the IC50 in test [1] is 51 to 500 nM; in test [2] it was under 10 nM.

(Values after patent US20240368154A1 (GENOSCO Inc., priority 2023, published 2024).)
